Patent US11926619B2, “Certain pladienolide compounds and methods of use” (EISAI R&D MANAGEMENT CO., LTD., priority 2018, dated 2024)
One block for each compound: values may come before it.

Key:
[1] = tested on: WiDr-R cells (colon cancer cells; chemically-induced SF3B1 R1074H mutant); experiment: Cell viability assay (CellTiter-Glo, 72 hr), resistant WiDr-R cells (counter-screen); assay type: cell-based; conditions: WiDr-R cells (SF3B1 R1074H mutation, resistant); read-out: WiDr-R GI50
In short: (§1)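 Cells at 2000/well were exposed to 9 compound concentrations (0.1% DMSO) in duplicate or triplicate for 72 hr at 37 °C. ATP was read by CellTiter-Glo against a time-zero plate and DMSO control growth. Percent growth/viability was plotted against concentration to give Emax; negative values indicate lethality.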

[2] = tested on: WiDr cells (colon cancer cells; wildtype SF3B1); experiment: Cell viability assay (CellTiter-Glo, 72 hr), WiDr cells; assay type: cell-based; conditions: Homo sapiens; WiDr cells (wildtype SF3B1); read-out: WiDr GI50
In short: as §1

[3] = tested on: Panc 05.04 cells (pancreatic cancer cells; Q699H and K700E mutations in SF3B1); experiment: Cell viability assay (CellTiter-Glo, 72 hr), Panc 05.04 cells; assay type: cell-based; conditions: Panc 05.04 cells (mutant SF3B1); for Emax: maximum achievable response in tested dose range, negative value = cellular lethality, read-out: Panc 05.04 (mt SF3B1 cells) Emax (%); for GI50: read-out: Panc 05.04 (mt SF3B1 cells), GI50
In short: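 Panc 05.04 cells treated 72 hr at 37 °C with 9 compound concentrations (0.1% DMSO), duplicate or triplicate. ATP read by CellTiter-Glo; growth inhibition/viability calculated against a time-zero plate and DMSO control growth. Emax is the maximal response over the tested range, negative values meaning lethality.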

SF3b complexes = biological target: T1, SF3b complexes (Homo sapiens, UniProt O75533+Q7RTV0); experiment: Scintillation proximity assay (SPA) with [3H]-labelled pladienolide probe; assay type: binding; conditions: wt SF3B1, read-out: SPA (wt SF3B1 cells) IC50
T1 construct: endogenous in cells
In short: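 SF3b complexes immunoprecipitated from nuclear extracts with anti-SF3B1 antibody on anti-mouse PVT SPA beads. Beads pre-incubated 30 min with varying PB or PB-OH, then 2.5 nM [3H]-PB added for 30 min; scintillation signal read and fit by non-linear regression.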

Compound: C/C(=C\C=C\[C@@H](C)COC(=O)N1CCC[C@H]1C(=O)O)[C@H]1OC(=O)C[C@H](O)CC[C@@](C)(O)[C@@H](OC(=O)N2CCN(C3CCCCCC3)CC2)/C=C/[C@@H]1C
GI50 [1]: > 1000 nM
GI50 [2]: > 1000 nM
Emax [3]: 35%
GI50 [3]: 2640 nM
IC50 (SF3b complexes): 36.1 nM

Compound: C/C(=C\C=C\[C@@H](C)c1ccccn1)[C@H]1OC(=O)C[C@H](O)CC[C@@](C)(O)[C@@H](OC(=O)N2CCN(C3CCC3)CC2)/C=C/[C@@H]1C
GI50 [1]: > 1000 nM
GI50 [2]: 36.7 nM
Emax [3]: -83.6%
GI50 [3]: 38.9 nM
IC50 (SF3b complexes): 7.23 nM

Compound: C/C(=C\C=C\[C@@H](C)COC(=O)N1CCCC1(C)C)[C@H]1OC(=O)C[C@H](O)CC[C@@](C)(O)[C@@H](OC(=O)N2CCN(C)CC2)/C=C/[C@@H]1C
GI50 [1]: > 1000 nM
GI50 [2]: 9.61 nM
Emax [3]: -93.7%
GI50 [3]: 7.82 nM
IC50 (SF3b complexes): 3.73 nM

Compound: C/C(=C\C=C\C(C)c1ccncn1)[C@H]1OC(=O)C[C@H](O)CC[C@@](C)(O)[C@@H](OC(=O)N2CCN(C3CCCCCC3)CC2)/C=C/[C@@H]1C (stereo partly shown)
GI50 [1]: > 1000 nM
GI50 [2]: 532 nM
Emax [3]: -26.6%
GI50 [3]: 956 nM
IC50 (SF3b complexes): 504 nM

Compound: CC(=O)O[C@H]1/C=C/[C@H](C)[C@@H](/C(C)=C/C=C/[C@@H](C)COC(=O)N(C)C(C)C)OC(=O)C[C@H](O)CC[C@@]1(C)O
GI50 [1]: > 10000 nM
GI50 [2]: 32.6 nM
Emax [3]: -87.4%
GI50 [3]: 54.6 nM
IC50 (SF3b complexes): 4.85 nM

Compound: CC(=O)O[C@H]1/C=C/[C@H](C)[C@@H](/C(C)=C/C=C/[C@@H](C)COC(=O)N2CCCCC2)OC(=O)C[C@H](O)CC[C@@]1(C)O
GI50 [1]: > 10000 nM
GI50 [2]: 49.7 nM
Emax [3]: -74.6%
GI50 [3]: 82.2 nM
IC50 (SF3b complexes): 15 nM

Compound: CC(=O)O[C@H]1/C=C/[C@H](C)[C@@H](/C(C)=C/C=C/[C@@H](C)COC(=O)N2CC[C@H](O)C2)OC(=O)C[C@H](O)CC[C@@]1(C)O
GI50 [1]: > 10000 nM
GI50 [2]: 51.5 nM
Emax [3]: -89.6%
GI50 [3]: 45.1 nM
IC50 (SF3b complexes): 96.5 nM

Compound: C/C(=C\C=C\[C@@H](C)COC(=O)N1CC[C@@H](O)C1)[C@H]1OC(=O)C[C@H](O)CC[C@H](C)[C@@H](OC(=O)N2CCN(C3CCCCCC3)CC2)/C=C/[C@@H]1C
GI50 [1]: > 1000 nM
GI50 [2]: 8.27 nM
Emax [3]: -77.8%
GI50 [3]: 10.8 nM
IC50 (SF3b complexes): 5.67 nM

Compound: COC[C@@H]1CCCN1C(=O)OC[C@H](C)/C=C/C=C(\C)[C@H]1OC(=O)C[C@H](O)CC[C@@](C)(O)[C@@H](OC(=O)N2CCN(C3CCCCCC3)CC2)/C=C/[C@@H]1C
GI50 [1]: > 1000 nM
GI50 [2]: 29.1 nM
Emax [3]: -89.1%
GI50 [3]: 11.9 nM
IC50 (SF3b complexes): 16.8 nM

Compound: C/C(=C\C=C\[C@@H](C)c1ccccn1)[C@H]1OC(=O)C[C@H](O)CC[C@@](C)(O)[C@@H](OC(=O)N2CCN(C(C)C)CC2)/C=C/[C@@H]1C
GI50 [1]: > 1000 nM
GI50 [2]: 31.8 nM
Emax [3]: -90.1%
GI50 [3]: 26.6 nM
IC50 (SF3b complexes): 6.37 nM

GI50 [2]: > 1000 nM
GI50 [3]: 2550 nM
IC50 (SF3b complexes): 480 nM
Compound: C/C(=C\C=C\[C@@H](C)c1ccccn1)[C@H]1OC(=O)C[C@H](O)CC[C@@](C)(O)[C@@H](OC(=O)N2CCOCC2)/C=C/[C@@H]1C
GI50 [1]: > 1000 nM
Emax [3]: 35.3%

Compound: C/C(=C\C=C\C(C)c1ccnc(N(C)C)n1)[C@H]1OC(=O)C[C@H](O)CC[C@@](C)(O)[C@@H](OC(=O)N2CCN(C3CCCCCC3)CC2)/C=C/[C@@H]1C (stereo partly shown)
GI50 [1]: > 10000 nM
GI50 [2]: 40.1 nM
Emax [3]: -94.5%
GI50 [3]: 98.3 nM
IC50 (SF3b complexes): 16.1 nM

GI50 [2]: 376 nM
GI50 [3]: 1180 nM
IC50 (SF3b complexes): 267 nM
Compound: C/C(=C\C=C\[C@@H](C)COC(=O)N1CC[C@@H](O)C1)[C@H]1NC(=O)CCCCC[C@@H](OC(=O)N2CCN(C)CC2)/C=C/[C@@H]1C
GI50 [1]: > 10000 nM
Emax [3]: 19.1%

Compound: CC(=O)O[C@H]1/C=C/[C@H](C)[C@@H](/C(C)=C/C=C/[C@@H](C)c2ccccn2)OC(=O)C[C@H](O)CC[C@@H]1C
GI50 [1]: > 10000 nM
GI50 [2]: 421 nM
Emax [3]: 28.1%
GI50 [3]: 2890 nM
IC50 (SF3b complexes): 538 nM

Compound: C/C(=C\C=C\[C@H](C)c1ccccn1)[C@H]1OC(=O)C[C@H](O)CC[C@@](C)(O)[C@@H](OC(=O)N2CCN(C3CCCCCC3)CC2)/C=C/[C@@H]1C
GI50 [1]: > 1000 nM
GI50 [2]: 65 nM
Emax [3]: -90%
GI50 [3]: 71.8 nM
IC50 (SF3b complexes): 5.95 nM

GI50 [2]: 65.5 nM
GI50 [3]: 54.7 nM
IC50 (SF3b complexes): 113 nM
Compound: C/C(=C\C=C\[C@@H](C)COC(=O)N1CCC[C@H]1CO)[C@H]1OC(=O)CCCCC[C@@H](OC(=O)N2CCN(CC(F)(F)F)CC2)/C=C/[C@@H]1C
GI50 [1]: > 1000 nM
Emax [3]: -85.6%

Compound: C/C(=C\C=C\[C@H](C)c1ccccn1)[C@H]1OC(=O)C[C@H](O)CC[C@@](C)(O)[C@@H](OC(=O)N2CCN(C)CC2)/C=C/[C@@H]1C
GI50 [1]: > 1000 nM
GI50 [2]: 34.3 nM
Emax [3]: -49.2%
GI50 [3]: 53.6 nM
IC50 (SF3b complexes): 5.69 nM

Compound: CC(=O)O[C@H]1/C=C/[C@H](C)[C@@H](/C(C)=C/C=C/[C@@H](C)COC(=O)N2CCC[C@H]2C)OC(=O)C[C@H](O)CC[C@@]1(C)O
GI50 [1]: > 1000 nM
GI50 [2]: 0.983 nM
Emax [3]: -79.3%
GI50 [3]: 2.11 nM
IC50 (SF3b complexes): 2.72 nM

GI50 [2]: 1060 nM
GI50 [3]: 5790 nM
IC50 (SF3b complexes): > 1200 nM
Compound: C/C(=C\C=C\[C@@H](C)c1ccccn1)[C@H]1OC(=O)CCCCC[C@@H](OC(=O)N(C)C)/C=C/[C@@H]1C
GI50 [1]: 7760 nM
Emax [3]: 48.2%

Compound: C/C(=C\C=C\[C@@H](C)COC(=O)N1CCC[C@H]1CO)[C@H]1OC(=O)C[C@H](O)CC[C@@](C)(O)[C@@H](OC(=O)N2CCN(C)CC2)/C=C/[C@@H]1C
GI50 [1]: > 1000 nM
GI50 [2]: 29.4 nM
Emax [3]: -77.2%
GI50 [3]: 20.3 nM
IC50 (SF3b complexes): 14 nM

Compound: C/C(=C\C=C\C(C)c1cccc(N2CCCC2)n1)[C@H]1OC(=O)C[C@H](O)CC[C@@](C)(O)[C@@H](OC(=O)N2CCN(C3CCCCCC3)CC2)/C=C/[C@@H]1C (stereo partly shown)
GI50 [1]: > 1000 nM
GI50 [2]: 320 nM
Emax [3]: -95.3%
GI50 [3]: 122 nM
IC50 (SF3b complexes): 21.9 nM

Compound: C/C(=C\C=C\[C@@H](C)CNC(=O)N1CCC[C@H]1CO)[C@H]1OC(=O)C[C@H](O)CC[C@@](C)(O)[C@@H](OC(=O)N2CCN(C3CCCCCC3)CC2)/C=C/[C@@H]1C
GI50 [1]: > 1000 nM
GI50 [2]: 95.9 nM
Emax [3]: -85%
GI50 [3]: 77.3 nM
IC50 (SF3b complexes): 40.8 nM

Compound: COC(=O)CC[C@H](C)/C=C/C=C(\C)[C@H]1OC(=O)C[C@H](O)CC[C@@](C)(O)[C@@H](OC(=O)N2CCN(C3CCCCCC3)CC2)/C=C/[C@@H]1C
GI50 [1]: > 1000 nM
GI50 [2]: 103 nM
Emax [3]: -96.9%
GI50 [3]: 51.3 nM
IC50 (SF3b complexes): 4.54 nM

Compound: C/C(=C\C=C\[C@@H](C)c1ccccn1)[C@H]1OC(=O)C[C@H](O)CC[C@@](C)(O)[C@@H](OC(=O)N2CCN(C3CCOCC3)CC2)/C=C/[C@@H]1C
GI50 [1]: > 1000 nM
GI50 [2]: 53.1 nM
Emax [3]: -87.7%
GI50 [3]: 37.2 nM
IC50 (SF3b complexes): 8.56 nM

Compound: C/C(=C\C=C\[C@@H](C)CNC(=O)N1CCCC1)[C@H]1OC(=O)C[C@H](O)CC[C@@](C)(O)[C@@H](OC(=O)N2CCN(C3CCCCCC3)CC2)/C=C/[C@@H]1C
GI50 [1]: > 1000 nM
GI50 [2]: 27.6 nM
Emax [3]: -90.9%
GI50 [3]: 19.8 nM
IC50 (SF3b complexes): 5.24 nM

Compound: C/C(=C\C=C\C(C)c1cccnn1)[C@H]1OC(=O)C[C@H](O)CC[C@@](C)(O)[C@@H](OC(=O)N2CCN(C)CC2)/C=C/[C@@H]1C (stereo partly shown)
GI50 [1]: > 1000 nM
GI50 [2]: 18.7 nM
Emax [3]: -90.9%
GI50 [3]: 59.2 nM
IC50 (SF3b complexes): 9.2 nM
